Measured values reported in US20260166159A1, “KRAS G12D DEGRADATION AGENT, AND PREPARATION METHOD AND USE THEREFOR” (LEADINGTAC PHARMACEUTICAL (SHAOXING) CO., LTD., priority 2022, published 2026).
pIC50: −log10 of the molar value.

Experiments:
[1] = system: KRAS G12D mutant human lung cancer cell A427; test: 3D cell proliferation inhibition assay, A427; type: cell-based; details: A-427, 168 h, A427, 7 days, CTG, class symbols
In short: (§1)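 Cells seeded at 5×10^2 per well in low-adsorption plates with compounds at 10000–0.026 nM final (0.2% DMSO) and grown 7 days at 37 °C, 5% CO2. Viability by CellTiter-Glo luminescence after 60 min at room temperature; inhibition normalized to DMSO and medium-only controls, IC50 from nonlinear log-concentration fit.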

[2] = system: KRAS G12D mutant human gastric cancer cell AGS; test: 3D cell proliferation inhibition assay, AGS; type: cell-based; details: 168 h, 7 days, CTG, class symbols
In short: as §1

[3] = molecular target: T1, Human KRAS G12D 6His-tagged (Homo sapiens, UniProt P01116, G12D); test: KRAS-G12D/GTP binding assay (HTRF); details: class symbols
T1 construct: purchased PerkinElmer
T1 sequence (P01116 1-188 isoform P01116-2 G12D): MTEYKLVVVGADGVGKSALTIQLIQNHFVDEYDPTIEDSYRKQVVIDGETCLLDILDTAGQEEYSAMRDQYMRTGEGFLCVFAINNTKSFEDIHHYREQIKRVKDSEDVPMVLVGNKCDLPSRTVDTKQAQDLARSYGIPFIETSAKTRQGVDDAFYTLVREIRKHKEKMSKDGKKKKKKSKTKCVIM
In short: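 HTRF kit format: 6His-tagged KRAS G12D incubated with compound (final 0.02-5000 nM, 0.5% DMSO), anti-6His Eu cryptate antibody and GTP Red reagent for 1 h at 25° C. 665/620 nm ratio versus control gave inhibition rates; IC50 by nonlinear fit.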

phosphorylated ERK = test: KRAS G12D-mediated phosphorylated ERK inhibition assay (AlphaLISA), A427; type: cell-based; details: Homo sapiens, A-427; A427 cells; class symbols; read-out: pERK (A427) IC50
Procedure: The relative amounts of phosphorylated ERK and total ERK in the samples were separately determined according to the test methods provided in the instructions of the AlphaLISA SureFire Ultra p-ERK 1/2 (Thr202/Tyr204) kit (PerkinElmer) and the AlphaLISA SureFire Ultra TotalERK 1/2 kit (PerkinElmer).
The experimental procedures for the assay of the phosphorylated ERK and total ERK were as follows: 10 μL of each sample was added to a 384-well plate (Greiner), and 5 μL of the prepared Acceptor Beads (PerkinElmer) mixed solution (containing 50× Acceptor Beads 615, Activation Buffer, and equal volumes of Reaction Buffer 1 and Reaction Buffer 2) was added to each well; and the plate was incubated at room temperature for 2 h. Then 5 μL of 1× Donor Beads (PerkinElmer) diluted with Dilution Buffer was added to each well, and the plate was incubated at room temperature overnight. After the incubation was completed, AlphaLISA signal values for the phosphorylated ERK and total ERK were separately measured on an EnVision microplate reader (PerkinElmer) in the AlphaScreen standard mode. The following formula was adopted: phosphorylated ERK correction value=phosphorylated ERK AlphaLISA signal value/total ERK AlphaLISA signal value. The relative ratio of the phosphorylated ERK for each sample was calculated. The percentage inhibition rates of the compounds on the phosphorylated ERK at each concentration were calculated by comparing the relative value of the phosphorylated ERK with that of the DMSO control well. Then non-linear curve fittings for logarithmic concentration-inhibition rate were performed by the GraphPad Prism 8 analysis software, and the IC50 values of the compounds on the inhibition of the phosphorylated ERK were obtained (Table 2).

Row | Structure (SMILES) | pIC50 [1] | pIC50 [2] | pIC50 [3] | pIC50 (phosphorylated ERK)
1 | C#Cc1c(F)ccc2cc(O)cc(-c3ncc4c(N5CC6CCC(C5)N6)nc(OCC5(CN6CCC(COCC7CCN(C(=O)c8ccc(Cl)c(N9CCC(=O)NC9=O)c8)CC7)CC6)CC5)nc4c3F)c12 [Example 13, 1-(5-(4-(((1-((1-(((4-(3,8-diazabicyclo[3.2.1]octan-3-yl)-7-(8-ethynyl-7-fluoro-3-hydroxynaphthalen-1-yl)-8-fluoropyrido[4,3-d]pyrimidin-2-yl)oxy)methyl)cyclopropyl)methyl)piperidin-4-yl)methoxy)methyl)piperidine-1-carbonyl)-2-chlorophenyl)dihydropyrimidine-2,4(1H,3H)-dione] | 7.00 to 7.30 | ≥ 7.30 | ≥ 7.30 | ≥ 7.30
2 | C#Cc1c(F)ccc2cc(O)cc(-c3ncc4c(N5CC6CCC(C5)N6)nc(OCC5(CN6CCN(CC7CCC8(CC7)CCN(C(=O)c7ccc(OC)c(N9CCC(=O)NC9=O)c7)CC8)CC6)CC5)nc4c3F)c12 [Example 14, 1-(5-(9-((4-((1-(((4-(3,8-diazabicyclo[3.2.1]octan-3-yl)-7-(8-ethynyl-7-fluoro-3-hydroxynaphthalen-1-yl)-8-fluoropyrido[4,3-d]pyrimidin-2-yl)oxy)methyl)cyclopropyl)methyl)piperazin-1-yl)methyl)-3-azaspiro[5.5]undecane-3-carbonyl)-2-methoxyphenyl)dihydropyrimidine-2,4(1H,3H)-dione] | ≥ 7.30 | ≥ 7.30 | ≥ 7.30 | ≥ 7.30
3 | CCc1c(F)ccc2cc(O)cc(-c3ncc4c(N5CC6CCC(C5)N6)nc(OCC5(CN6CCN(CC7CCC8(CC7)CCN(C(=O)c7ccc(OC)c(N9CCC(=O)NC9=O)c7)CC8)CC6)CC5)nc4c3F)c12 [Example 15, 1-(5-(9-((4-((1-(((4-(3,8-diazabicyclo[3.2.1]octan-3-yl)-7-(8-ethyl-7-fluoro-3-hydroxynaphthalen-1-yl)-8-fluoropyrido[4,3-d]pyrimidin-2-yl)oxy)methyl)cyclopropyl)methyl)piperazin-1-yl)methyl)-3-azaspiro[5.5]undecane-3-carbonyl)-2-methoxyphenyl)dihydropyrimidine-2,4(1H,3H)-dione] | ≥ 7.30 | ≥ 7.30 | ≥ 7.30 | ≥ 7.30
4 | Cc1ccc2[nH]ncc2c1-c1ncc2c(N3CC4CCC(C3)N4)nc(OCC3(CN4CCN(CC5CCC6(CC5)CCN(C(=O)c5ccc(Cl)c(N7CCC(=O)NC7=O)c5)CC6)CC4)CC3)nc2c1F [Example 16, 1-(5-(9-((4-((1-(((4-(3,8-diazabicyclo[3.2.1]octan-3-yl)-8-fluoro-7-(5-methyl-1H-indazol-4-yl)pyrido[4,3-d]pyrimidin-2-yl)oxy)methyl)cyclopropyl)methyl)piperazin-1-yl)methyl)-3-azaspiro[5.5]undecane-3-carbonyl)-2-chlorophenyl)dihydropyrimidine-2,4(1H,3H)-dione] | 6.30 to 7.00 | 5.00 to 6.00 | 5.00 to 6.00 | 5.00 to 6.00
5 | C#Cc1c(F)ccc2cc(O)cc(-c3ncc4c(N5CC6CCC(C5)N6)nc(OCC5(CN6CCN(CC7CCC8(CC7)CCN(C(=O)c7ccc(Cl)c(N9CCC(=O)N(C)C9=O)c7)CC8)CC6)CC5)nc4c3F)c12 [Example 17, 1-(5-(9-((4-((1-(((4-(3,8-diazabicyclo[3.2.1]octan-3-yl)-7-(8-ethynyl-7-fluoro-3-hydroxynaphthalen-1-yl)-8-fluoropyrido[4,3-d]pyrimidin-2-yl)oxy)methyl)cyclopropyl)methyl)piperazin-1-yl)methyl)-3-azaspiro[5.5]undecane-3-carbonyl)-2-chlorophenyl)-3-methyldihydropyrimidine-2,4(1H,3H)-dione] | 7.00 to 7.30 | 7.00 to 7.30 | ≥ 7.30 | ≥ 7.30
6 | C#Cc1c(F)ccc2cc(O)cc(-c3ncc4c(N5CC6CCC(C5)N6)nc(OCC5(CN6CCN(CCC7CCC8(CC7)CCN(C(=O)c7ccc(Cl)c(N9CCC(=O)NC9=O)c7)CC8)CC6)CC5)nc4c3F)c12 [Example 18, 1-(5-(9-(2-(4-((1-(((4-(3,8-diazabicyclo[3.2.1]octan-3-yl)-7-(8-ethynyl-7-fluoro-3-hydroxynaphthalen-1-yl)-8-fluoropyrido[4,3-d]pyrimidin-2-yl)oxy)methyl)cyclopropyl)methyl)piperazin-1-yl)ethyl)-3-azaspiro[5.5]undecane-3-carbonyl)-2-chlorophenyl)dihydropyrimidine-2,4(1H,3H)-dione] | ≥ 7.30 | ≥ 7.30 | ≥ 7.30 | ≥ 7.30
7 | CCc1cccc2cc(O)cc(-c3ncc4c(N5CC6CCC(C5)N6)nc(OCC5(CN6CCN(CCCC7CCN(C(=O)c8ccc(Cl)c(N9CCC(=O)NC9=O)c8)CC7)CC6)CC5)nc4c3F)c12 [Example 19, 1-(5-(4-(3-(4-((1-(((4-(3,8-diazabicyclo[3.2.1]octan-3-yl)-7-(8-ethyl-3-hydroxynaphthalen-1-yl)-8-fluoropyrido[4,3-d]pyrimidin-2-yl)oxy)methyl)cyclopropyl)methyl)piperazin-1-yl)propyl)piperidine-1-carbonyl)-2-chlorophenyl)dihydropyrimidine-2,4(1H,3H)-dione] | 6.30 to 7.00 | ≥ 7.30 | ≥ 7.30 | ≥ 7.30
8 | CCc1cccc2cc(O)cc(-c3ncc4c(N5CC6CCC(C5)N6)nc(OCC5(CN6CCN(CC7CCC8(CC7)CCN(C(=O)c7ccc(OC)c(N9CCC(=O)NC9=O)c7)CC8)CC6)CC5)nc4c3F)c12 [Example 20, 1-(5-(9-((4-((1-(((4-(3,8-diazabicyclo[3.2.1]octan-3-yl)-7-(8-ethyl-3-hydroxynaphthalen-1-yl)-8-fluoropyrido[4,3-d]pyrimidin-2-yl)oxy)methyl)cyclopropyl)methyl)piperazin-1-yl)methyl)-3-azaspiro[5.5]undecane-3-carbonyl)-2-methoxyphenyl)dihydropyrimidine-2,4(1H,3H)-dione] | ≥ 7.30 | ≥ 7.30 | ≥ 7.30 | ≥ 7.30
9 | C#Cc1c(F)ccc2cc(O)cc(-c3ncc4c(N5CC6CCC(C5)N6)nc(OCC5(CN6CCC(COCCC7CCN(C(=O)c8ccc(Cl)c(N9CCC(=O)NC9=O)c8)CC7)CC6)CC5)nc4c3F)c12 [Example 21, 1-(5-(4-(2-((1-((1-(((4-(3,8-diazabicyclo[3.2.1]octan-3-yl)-7-(8-ethynyl-7-fluoro-3-hydroxynaphthalen-1-yl)-8-fluoropyrido[4,3-d]pyrimidin-2-yl)oxy)methyl)cyclopropyl)methyl)piperidin-4-yl)methoxy)ethyl)piperidine-1-carbonyl)-2-chlorophenyl)dihydropyrimidine-2,4(1H,3H)-dione] | 6.30 to 7.00 | ≥ 7.30 | ≥ 7.30 | ≥ 7.30
10 | CCc1c(F)ccc2cc(O)cc(-c3ncc4c(N5CC6CCC(C5)N6)nc(OCC5(CN6CCN(CCCC7CCN(C(=O)c8ccc(Cl)c(N9CCC(=O)NC9=O)c8)CC7)CC6)CC5)nc4c3F)c12 [Example 22, 1-(5-(4-(3-(4-((1-(((4-(3,8-diazabicyclo[3.2.1]octan-3-yl)-7-(8-ethyl-7-fluoro-3-hydroxynaphthalen-1-yl)-8-fluoropyrido[4,3-d]pyrimidin-2-yl)oxy)methyl)cyclopropyl)methyl)piperazin-1-yl)propyl)piperidine-1-carbonyl)-2-chlorophenyl)dihydropyrimidine-2,4(1H,3H)-dione] | 7.00 to 7.30 | ≥ 7.30 | ≥ 7.30 | ≥ 7.30
11 | C#Cc1c(F)ccc2cc(O)cc(-c3ncc4c(N5CC6CCC(C5)N6)nc(OCC(C)(C)CN5CCN(CCCC6CCN(C(=O)c7ccc(Cl)c(N8CCC(=O)NC8=O)c7)CC6)CC5)nc4c3F)c12 [Example 23, 1-(5-(4-(3-(4-(3-((4-(3,8-diazabicyclo[3.2.1]octan-3-yl)-7-(8-ethynyl-7-fluoro-3-hydroxynaphthalen-1-yl)-8-fluoropyrido[4,3-d]pyrimidin-2-yl)oxy)-2,2-dimethylpropyl)piperazin-1-yl)propyl)piperidine-1-carbonyl)-2-chlorophenyl)dihydropyrimidine-2,4(1H,3H)-dione] | 6.30 to 7.00 | 7.00 to 7.30 | ≥ 7.30 | 6.30 to 7.00
